Values joined by “and” are separate entries in the source; they are usually repeats but may differ in a detail not shown here. Identical values can stand only once. Like-named read-outs stand apart in the source and are kept apart here.
Key:
[1] = Solubility in water; type: physicochemical; conditions: 24 °C, room temperature (22-26° C.)
[2] = Pharmacokinetic study after unilateral transtympanic administration (plasma, inner ear, perilymph, brain); type: in vivo, female Sprague Dawley rats; conditions: rat; for concentration at 14 days: 14 days after administration; for ACOU085 plasma concentration / ACOU085 brain concentration: 6% thermo-reversible formulation 1.2 mg/animal unilateral transtympanic
Protocol: Eighteen female Sprague Dawley rats entered a pharmacokinetic study, to determine the distribution of a 6% thermo-reversible ACOU085 formulation at a dose of 1.2 mg/animal after unilateral transtympanic administration in peripheral plasma, inner ear, perilymph, brain and CSF.
4, 24, 48, 96, 168 and 336 h after dosing n=3 rats out of every group were euthanized with carbon dioxide, peripheral and final blood samples and brain were taken and inner ears were dissected to analyze ACOU085 concentrations. Body weight was assessed on the day 1-4, on day 7 and day 14. Animals were checked for any clinical signs associated with toxicity of the test substance.

[3] = Viscosity test: temperature-induced rise in viscosity; type: physicochemical; conditions: 15% poloxamer 407 gel with 2% API vs without
Protocol: The viscosity normally is measured with a viscometer, in particular a rheometer. A rheometer usually is a laboratory device measuring flow characteristics of a liquid, suspension or slurry in response to applied forces. A common device type is a so called shear rheometer, in which a shear stress is applied to the corresponding material. Devices which can be used to measure the viscosity of the aqueous gel compositions according to the invention are rheometers from Brookfield (AMETEK Brookfield). […]
Note: Maximal Viscosity is Identical for all Formulations (Due to the Test Method)

[4] = 6% thermo-reversible formulation 1.2 mg/animal transtympanic

Row | solubility [1] [µg/mL] | concentration at 336 h ([2]; female, Sprague Dawley, other: transtympanic, perilymph, 6% formulation 1.2 mg/animal unilateral transtympanic, Left side, 336 h, animals 1-3, read-out: Uptake of ACOU085 into the perilymph: ACOU085 inner ear concentration) [nM] | concentration at 14 days ([2]; female, Sprague Dawley, brain, other: transtympanic, 1.2 mg/animal, read-out: brain concentration (average)) [nM] | concentration at 4 h ([2]; female, Sprague Dawley, inner ear, left side, other: transtympanic, 1.2 mg/animal, 6% formulation 1.2 mg/animal unilateral transtympanic, Left side, 4 h, animals 1-3, read-out: ACOU085 inner ear concentration) [nM] | concentration at 14 days ([2]; female, Sprague Dawley, plasma, other: transtympanic, 1.2 mg/animal, read-out: plasma concentration (average)) [nM] | concentration at 7 days ([2]; female, Sprague Dawley, plasma, other: transtympanic, 1.2 mg/animal, after 7 days) [nM] | ACOU085 inner ear concentration ([2]; 6% formulation 1.2 mg/animal unilateral transtympanic, Left side, 4 h, animals 1-3) | maximal average concentration in brain [2, 4] [nmol/L] | maximal average concentration in plasma [2, 4] [nmol/L] | ACOU085 plasma concentration ([2]; 4 h (printed 4 11), animals 1-3) | ACOU085 brain concentration ([2]; 48 h, animals 1-3) | ACOU085 plasma concentration ([2]; 48 h, animals 1-3) | ACOU085 brain concentration ([2]; 96 h, animals 1-3) | ACOU085 plasma concentration ([2]; 96 h, animals 1-3) | time of peak brain concentration ([2]; after injection) [h] | Uptake of ACOU085 into the perilymph: ACOU085 inner ear concentration ([2]; perilymph, 6% formulation 1.2 mg/animal unilateral transtympanic, Left side, 336 h, animals 1-3) | effect of API on the viscosity-temperature relation of the formulation [3] | Structure (SMILES) | uptake into the brain and into the plasma ([2]; compared with inner ear tissue and perilymph)
1 | < 1000 | – | – | – | – | – | – | – | – | – | – | – | – | – | – | – | – | O=C(NCc1cccc(S(F)(F)(F)(F)F)c1)[C@H]1C[C@@H]2CC[C@H]1C2 (racemic) [Compound A, (1SR,2SR,4RS)—N-(3-(pentafluoro-λ6-sulfanyl)benzyl) bicyclo[2.2.1]heptane-2-carboxamide] | –
2 | < 1000 | 4 | 8 | 55 | 4 | 26 | 82 nmol/L and 93 nmol/L | 82 | 45 | 9 nnmol/L and 6 nnmol/L and 12 nnmol/L | 38 nnmol/L and 53 nnmol/L and 76 nnmol/L | 12 nnmol/L and 18 nnmol/L and 16 nnmol/L | 94 nnmol/L and 52 nnmol/L and 68 nnmol/L | 48 nnmol/L and 26 nnmol/L and 33 nnmol/L | 96 | 3 nmol/L and 2 nmol/L | no effect | O=C(NCc1cccc(S(F)(F)(F)(F)F)c1)[C@H]1C[C@@H]2CC[C@H]1C2 [ACOU085, (1S,2S,4R)—N-(3-(pentafluorosulfanyl)benzyl) bicyclo[2.2.1]heptane-2-carboxamide] | low in comparison to the inner ear tissue and perilymph

Source: patent US20260083669A1, “AQUEOUS GEL COMPOSITION” (Acousia Therapeutics GmbH, priority 2022, published 2026)
